{
  "source": "patent US7335735B2",
  "about": "“Intracellular estradiol binding protein” (Cedars-Sinai Medical Center, priority 2003, dated 2008)",
  "key": {"[1]": {"system": "ERE-directed transactivation", "assay": "ERE-promoter-reporter luciferase assay, transient co-transfection", "assay_type": "cell-based, Old World primate"}, "hsp27": {"system": "hsp27", "assay": "Western blot analysis of hsp27 expression in wild-type breast cells", "assay_type": "cell-based, Old World primate", "settings": "wild-type control cells, Western blot with anti-hsp27 antibody"}, "glucocorticoid receptors": {"system": "glucocorticoid receptors", "settings": "New World primate cells; cited from earlier work"}, "[2]": {"system": "ERE-directed transactivation", "assay": "ERE luciferase reporter assay in cells stably transfected with IEBP", "assay_type": "cell-based, Old World primate", "settings": "stable transfectants compared with wild-type cells", "description": "E2-responsive OWP breast cells from cell line 6299 were incubated with 5.0 ug pcDNA3.1/v5-His-TOPO IEBP plasmid in LIPOTAXI solution for 5 hours followed by the addition of equal volume of 20% FCS-supplemented medium. After incubation overnight, cells were split (1:10 ratio) and incubated with fresh medium containing 500 ug/ml of the geneticin-selective antibiotic G418 sulfate (Life Technology; Grand Island, N.Y.). This medium was replaced every 3-4 days, until stable colonies formed. Single colonies were picked, transferred into a new dish, and incubated with medium containing selection antibiotic G418 until confluence for further study.\nExperiments were therefore carried out to clarify whether the overexpression of IEBP antagonized, facilitated, or did nothing to estrogen-induced transactivation. Estrogen-responsive Old World primate cells were transiently co-transfected with IEBP cDNA and an ERE-promoter-reporter construct. After transfection, ERE-directed luciferase activity was reduced 50% compared to vector alone-transfected Old World primate cells. […] Similar results were also obtained following stable transfection of IEBP into Old World primate cells. Increased expression of IEBP in these cells was confirmed by Western blot analyses using an anti-hsp27 antibody."}, "ERE": {"system": "ERE", "assay": "Electrophoretic mobility shift analysis (EMSA) with idealized ERE as probe", "assay_type": "binding", "settings": "postnuclear extracts from OWP-IEBP stable transfectant clone 1, recombinant ERα", "description": "This is believed to be due, at least in part, to enhanced binding of estrogens. To determine whether IEBP also functions as a direct competitor for ERE-binding, the inventors carried out electrophoretic mobility shift analyses (EMSAs) using an idealized ERE as a probe with recombinant ERα and/or postnuclear extracts from OWP-IEBP stable transfectant clone 1 as binding proteins. […] To assess this possibility, coimmunoprecipitation was performed by using anti-ERα and anti-hsp27 antibodies. Antihuman ERα antibodies were used to immunoprecipitate […] proteins in postnuculear extracts of both wild-type and IEBP-stably-transfected cells. The immunoprecipitates were subjected to Western blot analysis by using hsp27 antibodies. Data confirmed association between ERα and hsp27. Similar results were also obtained following initial immunoprecipitation with hsp27, and subsequent ERα blotting."}},
  "note": "Entries after “also recorded” stand apart in the source; their conditions may differ.",
  "data": [
    {"molecule": "C[C@]12CC[C@@H]3c4ccc(O)cc4CC[C@H]3[C@@H]1CC[C@@H]2O", "note": "[E2, 17β-estradiol]", "values": [
      {"measurement": "effect on ERE-mediated transcription", "setting": "[1]; transient transfectants, E2 pre-treatment in control cells", "result": "stimulated ERE-mediated transcription"},
      {"measurement": "hsp27 expression", "setting": "hsp27", "result": "stimulated hsp27 expression in a dose-dependent fashion; also recorded: strongly increased hsp27 expression"}
    ]},
    {"molecule": "FKBP51: heat-shock protein (hsp)90-associated FK 506-binding immunophilin", "values": [
      {"measurement": "inhibition of ligand binding to glucocorticoid receptors", "setting": "glucocorticoid receptors", "result": 74, "unit": "%"}
    ]},
    {"molecule": "IEBP: novel hsp27-related intracellular estradiol binding protein from New World primate B95-8 cells, SEQ ID NO:1 (protein, listed as Homo sapiens) MTERHVPFSLLQSPSWDPFRDWYPHSHLFDQAFGMPRLPEEWSQWFGTSSWPGYVRPLPPTTVEGPAVAAPAYSRALNQQLSSGVSETADRWRVSLDVNHFAPEELTVKTKDGVVEITGKHEERQDEHGFISRCFTRKYSLPPGVDPTQVSPSLSPEGTLTVDAPMSKPATQSNEITIPVTFESRAQLGGPEAAKSDRSAAK", "values": [
      {"measurement": "reduction of ERE-directed luciferase activity", "setting": "[1]; transient co-transfection of cDNA and ERE-promoter-reporter construct, compared to vector alone-transfected Old World primate cells", "result": 50, "unit": "%"},
      {"measurement": "decrease of ERE luciferase reporter activity", "setting": "[2]", "result": "2-3 fold"},
      {"measurement": "binding to ERE and competition with ERα for ERE", "setting": "ERE", "result": "neither bound to ERE nor competed with the ERα for binding to ERE"}
    ]}
  ]
}
